Test results as given in patent US20080299123A1, “TREATMENT OF CHEMOTHERAPY- OR RADIOTHERAPY-RESISTANT TUMORS” (Deutsches Krebsforschungszentrum Stiftung des offentlichen …, priority 2006, published 2008).

Columns and labels:
L1CAM = L1CAM expression in PT45-P1 cells; type: cell-based, human; settings: 20 ng/mL IL1β
Procedure: (a) PT45-P1res cells were either left untreated (w/o) or treated with 250 ng/mL IL1-RA for 6 hours. In parallel, PT45-P1 cells were either left untreated (w/o) or treated with 20 ng/mL IL1β for 6 hours. L1CAM mRNA levels were analysed by real-time PCR and compared with β-actin used as control. Data from duplicate measurements are expressed as amount of mRNA in arbitrary units. Results from one representative out of three experiments are shown. (b) Cellular lysates from PT45-P1res and PT45-P1 cells were subjected to western blotting using an antibody for the detection of full-length L1CAM. PT45-P1res cells were either left untreated (w/o) or treated with 250 ng/mL IL1-RA for 24 hours. In parallel, PT45-P1 cells were either left untreated (w/o) or treated with 20 ng/mL IL1β for 24 hours. In all experiments, a HSP90 antibody was used as a control for equal protein load.
Cells were seeded into 6 well and 12 well plates, respectively, and transfected or treated as indicated. […] Protein concentrations were determined using the Dc Protein assay (BioRad). […]
2 μg of total RNA were reverse-transcribed into single-stranded cDNA, as described previously (Schafer et al., 1999). […] Data were collected during annealing steps and were further analysed by using the i-Cycler iQ Optical system software (BioRad). All samples were analysed in duplicates and data are expressed as amount of mRNA in arbitrary units.

[1] = system: cathepsin B and CRABPII transcription; assay: L1-dependent gene regulation by qPCR in HEK293-hL1wt cells; type: cell-based, human; settings: preincubation 96 h
Procedure: (§1) (A) Analysis of L1-32 cleavage by γ-secretase. Cells were treated for 48 h at 37° C. with presenilin inhibitor IX (DAPT) or for control with DMSO. Isolated membranes were incubated for 2 h at 37° C. and then separated into pellet or supernatant (SN) fractions by ultracentrifugation. Lanes 1 to 2 show cells treated with DMSO (vehicle). Lanes 3 and 4 show cells preincubated with DAPT. (B) SKOV3ip cells were treated with DAPT either in the presence or absence of the metalloprotease inhibitor TAPI-0 for 24 hr. Cells were lysed in BOG lysis buffer and analyzed by Western blot analysis. The cell supernatant was analyzed for soluble L1 using mAb L1-11A and the cell lysate was examined for L1-32 using peytL1. (C) HEK293 or HEK293-hL1wt cells were treated with DMSO, DAPT, TAPI-0 or both inhibitors for 96 h. mRNA was transcribed to cDNA and analyzed by qPCR for the genes CRABPII and cathepsin B. (D) Analysis of ERK phosphorylation in SKOV3ip cells after treatment with the indicated compounds.
We next investigated whether L1-mediated gene regulation was dependent on L1-processing, by carrying out inhibition experiments. […]
mRNA was isolated using the Quiagen RNAeasy mini kit (Quiagen Hilden, Germany). […] After exposing of the hybridized membranes, the PhosphorImager screens were scanned (Fuji FLA-3000, 100 μm resolution, Fuji BAS-reader software). […]

L1 = L1 processing in SKOV3ip cells (L1-32 in lysate, soluble L1 in supernatant), Western blot; type: cell-based, human; settings: 24 hr
Procedure: as §1
(§2) (A) Effect of L1-antibodies on ERK phosphorylation in SKOV3ip cells. The cells were incubated for 24 hr at 37° C. with the indicated purified antibodies to L1 (10 μg/ml) or isotype control IgG. […] Soluble L1 in the supernant and L1-32 in the cell lysate were analyzed by Western blot. (C) mRNA was isolated from antibody treated SKOV3ip cells, transcribed to cDNA and analyzed by qPCR for the indicated genes. […]

γ-secretase = assay: In vitro γ-secretase activity on membranes of CHO-hL1wt cells; type: cell-based; settings: cells preincubated 48 h with inhibitor; membranes 2 h at 37° C.
Procedure: as §1
Consecutive cleavage by both enzymes is a hallmark of Notch, APP and CD44 signaling that is followed by translocation of the intracellular portion to the nucleus (22). To verify this observation for tumor cells, we analyzed the processing of L1-32 in more detail. […] Indeed, we detected L1-28 in the supernatant fraction (FIG. 11A, lane 2). […]

ERK phosphorylation = ERK phosphorylation in SKOV3ip cells; type: cell-based, human; settings: treatment with DAPT, TAPI-0
Procedure: as §1, §2

| Compound | L1CAM expression (L1CAM) | L1-dependent regulation of transcription for cathepsin B and CRABPII [1] | L1-32 in cell lysate (L1) | soluble L1 in the medium (L1) | release of L1-28 from the membrane into the supernatant (γ-secretase) | ERK activation in treated cells (ERK phosphorylation) |
| --- | --- | --- | --- | --- | --- | --- |
| IL1β: recombinant human Interleukin 1 beta from R&D Systems | enhanced L1CAM expression |  |  |  |  |  |
| C[C@H](NC(=O)Cc1cc(F)cc(F)c1)C(=O)N[C@H](C(=O)OC(C)(C)C)c1ccccc1 [DAPT] |  | blocked | strong increase in the metalloprotease cleavage fragment L1-32 | not increased by the treatment | could not release this fragment into the supernatant | did not interfere with ERK activation |
